Active and inactive are the calls of the source. How the calls were made is not given here.

The assay concerns the target RanGTP-importin-beta complex (human Ran / KPNB1). The assay can be described thus: Ran–importin-beta interaction inhibitors, confirmation, biochemical, FRET, CFP/YFP, cell-free homogeneous (AID 2823). The note with it: CFP-Ran/YFP-importin-beta FRET ratio.
In the case of `COc1cc(OC)cc(C(=O)NCCNc2nc3cc(C)cc(C)c3cc2C#N)c1`, the IC50 is 8.59 µM. For `COCCNC(=O)/C(C#N)=C/c1c(N2CCN(c3ccc(OC)cc3)CC2)nc2c(C)cccn2c1=O` the value was 39.2 µM. The result for `Cc1cc(C)c(C#N)c(Nc2ccccc2C)n1` reads > 50 µM (inactive). As for `O=c1[nH]c2c(s1)C(c1ccco1)C1C3CCC(C3)C1S2` (configuration not stated), the IC50 is > 50 µM (inactive).

On to `COc1ccc(Cn2c(=N)c(C(=O)NC3CCCCC3)cc3c(=O)n4ccccc4nc32)cc1`, for which the IC50 was 47.7 µM. For `C=CCn1c(O)c(C(C)=NCCc2ccccc2)c(=O)[nH]c1=O` the value was > 50 µM (inactive); for `CNC(=S)Nc1ccc(C(N)=O)cc1`, > 50 µM (inactive). For `Cc1cccn2c(=O)c(/C=C(\C#N)C(=O)NC3CCS(=O)(=O)C3)c(Oc3ccc(F)cc3)nc12` (configuration not stated) the value was 15.6 µM. On to `COc1cc2c(cc1NC(=S)Nc1cccc3ccccc13)oc1ccccc12`, for which the IC50 was > 50 µM (inactive). With `COc1ccccc1C(=O)NCCNc1nc2cc(C)cc(C)c2cc1C#N`, the IC50 was 39.5 µM. The result for `Cc1ccc(Cl)cc1N1C(=O)CC(Sc2ncccn2)C1=O` (configuration not stated) reads > 50 µM (inactive). For `CCN1CCc2nc(NC(=O)c3cc(F)c(F)cc3Cl)sc2C1` the value was > 50 µM (inactive); for `CCOc1ccc(-n2c(N)c(C(=O)NCc3ccco3)c3nc4ccccc4nc32)cc1`, 25 µM; for `COc1c2ccccc2nc2ccccc12`, 8.46 µM. For `Cc1cc(NC(=O)c2c(F)c(F)c(F)c(F)c2F)no1` the value was > 50 µM (inactive). Consider `O=[N+]([O-])c1ccc(CNC2CCCc3ccccc32)cc1` (configuration not stated), for which the IC50 was > 50 µM (inactive). The result for `CCOC(=O)c1ccc(NC(=O)CSc2nc(C)nc3c2c(=O)n(C)c(=O)n3C)cc1` reads > 50 µM (inactive); that for `COc1ccc2cc(CCN3C(=O)c4ccccc4C3=O)c(=O)[nH]c2c1`, > 50 µM (inactive); that for `CCN(C(=O)c1ccc(Cl)cc1[N+](=O)[O-])c1ccccc1C`, > 50 µM (inactive).

`COCC(C)OC(=O)c1c(N)n(CC(C)C)c2nc3ccccc3nc12` (configuration not stated): the IC50 was 28.5 µM. In the case of `CC(C)(C)C(=O)NC(=S)Nc1ccc(S(=O)(=O)Nc2nccs2)cc1`, the IC50 is > 50 µM (inactive). Consider `O=C(O)C1CCCC2CN3CCc4c([nH]c5ccccc45)C3C(O)C21` (configuration not stated), for which the IC50 was > 50 µM (inactive). The result for `N#Cc1c(N)nc2c(c1-c1ccc(F)cc1)CCC2` reads 11 µM. For `Cc1nn(-c2ccccc2)c2sc(C(=O)NC3CCCCC3)cc12` the value was > 50 µM (inactive); for `Cc1ccc(C(=O)Nc2ncc(Cc3ccc(F)cc3)s2)o1`, > 50 µM (inactive).

With `COc1ccc(N2Cc3ccccc3/C2=N\C(=O)Nc2ccccc2)cc1`, the IC50 is > 50 µM (inactive). For `Cc1cc(N2C(=O)C(O)=C(C(=O)c3cc4ccccc4o3)C2c2cccc(Cl)c2)no1` (configuration not stated) the value was 36 µM; for `Cc1cc2c(c(=O)n1Cc1cccnc1)C(Cc1ccccc1)C(C#N)=C(N)O2` (configuration not stated), > 50 µM (inactive). For `Cc1ccc(S(=O)(=O)NC(C(=O)Oc2ccc3ccc(=O)oc3c2)c2ccccc2)cc1` (configuration not stated) the value was 24.8 µM; for `Oc1c(CN2CCN(c3ccc(F)cc3)CC2)cc(Cl)c2cccnc12`, > 50 µM (inactive). The result for `CC(=O)N1c2ccc(S(=O)(=O)N3CCC(C(=O)Nc4cccc(Cl)c4)CC3)cc2CC1C` (configuration not stated) reads > 50 µM (inactive); that for `Cc1cccc(C)c1NC(=O)C1=C(O)c2sccc2N(C)S1(=O)=O`, 4.36 µM.

Regarding `OCCNc1c2ccccc2nc2c(F)c(F)c(F)c(F)c12`, the IC50 is 20.9 µM. As for `COc1ccc(C(=O)c2cc3ccc(O)cc3oc2=O)cc1`, the IC50 is 16.4 µM. As to `CC(=O)c1ccc(-c2cccs2)s1`, the IC50 is 34.7 µM. As for `COc1ccc(NC(=O)CN2C(=O)CC(C)S(=O)(=O)c3ccccc32)cc1` (configuration not stated), the IC50 is > 50 µM (inactive).

On to `CC(C)OC(=O)c1nnn(-c2nonc2N)c1CN1CCCCCC1`, for which the IC50 was > 50 µM (inactive).

With `Cn1c(=O)oc2cc(S(=O)(=O)NCCC(=O)N3CC=C(c4ccccc4)CC3)ccc21`, the IC50 is > 50 µM (inactive). In the case of `CCC(=O)N(C)/C=C1\Sc2ccccc2C1=O`, the IC50 is > 50 µM (inactive). For `Cc1cc(NCCN(C)C)n2nc(-c3cccs3)cc2n1` the value was 28.8 µM; for `CN=C(Nc1cc(C)nn1CCC#N)c1ccccc1`, > 50 µM (inactive); for `COc1cc(/C=C(\C#N)C(=O)Nc2cccc3ncccc23)cc(OC)c1OC`, > 50 µM (inactive). The result for `Nc1ccccc1C(=O)NNc1c2ccccc2nc2ccccc12` reads > 50 µM (inactive); that for `C=CCn1c(N)c(C(=O)OCCC)c2nc3ccccc3nc21`, 26 µM; that for `COc1cccc(-c2cc(C(=O)NC3CC3)c3ccccc3n2)c1`, > 50 µM (inactive). The result for `CCC(=O)Nc1ccc(N/C(N)=N/c2nc(C)cc(C)n2)cc1` reads > 50 µM (inactive). In the case of `Cc1cccc(C)c1OCC(=O)OC/C(O)=C(\C#N)c1nc2ccccc2[nH]1`, the IC50 is > 50 µM (inactive). The result for `COC(=O)c1cc(C(=O)OC)[nH]n1` reads > 50 µM (inactive); that for `COc1ccc(CNc2ccc3c(c2)ncn3-c2ccccc2OC)cc1`, > 50 µM (inactive). Take `COCC(=O)Nc1nnc(COc2ccc(Cl)cc2)s1`: the IC50 is > 50 µM (inactive). On to `Cc1nc2ccccc2c2oc(C(=O)NCCCN3CCC(C)CC3)cc12`, for which the IC50 is > 50 µM (inactive). The result for `Cc1cc(CNC(=O)COc2ccc(F)cc2)c2ccccc2n1` reads > 50 µM (inactive); that for `CCc1ccc(C2C3=C(CC(C)(C)CC3=O)Nc3c2c(=O)[nH]c2nc(C)nn32)cc1` (configuration not stated), 7.01 µM; that for `COc1ccc(NC(=O)N2CCCCCC2)cc1`, > 50 µM (inactive). For `COc1ccc2cc(C(C)=O)c(=O)oc2c1` the value was 32.2 µM; for `CCOc1ccc(NS(=O)(=O)c2ccc3c(c2)CCN3C(=O)CCC(=O)O)cc1`, > 50 µM (inactive); for `CCCN1CCC2(CC1)C(C#N)=C(N)Oc1c2sc2nc(C)cc(C)c12`, > 50 µM (inactive). As to `CC1(C)CC(=O)C/C(=N\NC(=O)C2CC23CCC3)C1` (configuration not stated), the IC50 is > 50 µM (inactive). For `N#CC1=C(N)Oc2cc3c(cc2C1c1ccc(Cl)cc1)OCO3` (configuration not stated) the value was > 50 µM (inactive); for `COc1ccccc1C1CC(c2ccc(Cl)cc2)Nc2nc(N)nn21` (configuration not stated), > 50 µM (inactive). For `CCOC(=O)C1=C(N)OC2=C(C(=O)CCC2)C1c1sccc1C` (configuration not stated) the value was > 50 µM (inactive).

Consider `COc1ccc(N2C(=O)CC(C#N)=C2N)cc1`, for which the IC50 was > 50 µM (inactive). For `Fc1ccc(N/N=C/C=C/c2ccccc2)c(F)c1` the value was > 50 µM (inactive). For `CCN(CC)S(=O)(=O)c1ccc(NC(=O)c2cccc3c2C(=O)N(CCOC)C3)cc1` the value was > 50 µM (inactive); for `CCOC(=O)N1CCN(c2cc(=O)n(C3CCCCC3)c(=O)[nH]2)CC1`, > 50 µM (inactive). As to `O=C(O)/C=C/C(=O)Nc1ccc2c(c1)NC(=O)CO2`, the IC50 was > 50 µM (inactive). With `CC1(C)CC(=O)C=C(NNC(=O)C2CCCCC2)C1`, the IC50 was > 50 µM (inactive).

For `Cc1cc(C=C(C#N)C#N)ccc1N1CCCC1`, the IC50 is > 50 µM (inactive). For `O=c1cc(CN2CCN(S(=O)(=O)c3ccc4c(c3)OCCO4)CC2)c2ccc(O)cc2o1` the value was 10.9 µM; for `CCOC(=O)c1c(N2C(=O)Nc3ccccc3N2O)sc2c1CCCC2`, > 50 µM (inactive); for `Cc1cc(C2C(C#N)=C(N)SC(N)=C2C#N)c(C)s1`, > 50 µM (inactive). For `CC(=O)N1CCc2c(sc(NC(=O)CCS(=O)(=O)c3ccc(C)cc3)c2C(N)=O)C1` the value was 30.7 µM; for `Cc1c(CC(=O)NCC(=O)N[C@H](Cc2ccccc2)C(=O)O)c(=O)oc2cc(O)ccc12`, 46.2 µM; for `COC(=O)C1=CN(Cc2ccc(OC)c(OC)c2)C=C(C(=O)OC)C1c1cccc(O)c1`, 14.3 µM. Consider `CCCCc1c(C)c(C#N)c2nc3ccccc3n2c1Nc1c(C)n(C)n(-c2ccccc2)c1=O`, for which the IC50 was 45 µM.

`CCOC(=O)c1c(NC(=O)CSc2nnc3c(n2)[nH]c2ccccc23)sc2c1CCN(C)C2`: the IC50 was > 50 µM (inactive).

Consider `CC1=Nc2ccccc2/C1=C\c1sc(Nc2ccc(C)cc2)nc1O`, for which the IC50 was > 50 µM (inactive).

For `O=C(Nc1cccc(-c2nc3ccccc3s2)c1)c1cccs1`, the IC50 is > 50 µM (inactive). For `CCOC(=O)c1ccc(CNC(=O)CSc2nnc(-c3ccncc3)o2)cc1` the value was > 50 µM (inactive).

Turning to `COc1ccc2cc(-c3nc4ccccc4n3C)c(=O)oc2c1`, the half-inhibitory concentration (IC50) was 19.1 µM.

On to `NC(=S)Cc1nc(-c2ccc(Cl)cc2)cs1`, for which the IC50 was > 50 µM (inactive). The result for `CC(=O)c1ccc(-c2ccc(Cn3c(C)nc4cc(N)c(C)nc43)cc2)cc1` reads > 50 µM (inactive). The result for `Cn1c(=O)cc(OCCCC(=O)NCc2ccccn2)c2ccccc21` reads > 50 µM (inactive); that for `O=C(Cn1nnc2ccccc21)N/N=C\c1cccs1`, > 50 µM (inactive).

As to `Cc1ccc(NC(=O)COC(=O)Cc2ccsc2)c(C)c1`, the IC50 is > 50 µM (inactive). For `C[C@H](O)c1[nH]c2cc(F)ccc2c1[C@H](C)O` the value was > 50 µM (inactive).

As for `CN1CC2=CC(O)CC3Oc4c(O)ccc(c4[C@]23C)C1` (some centres not stated), the IC50 was > 50 µM (inactive).

As for `CCN(CC)S(=O)(=O)c1cc(C(=O)Nc2ccccc2[N+](=O)[O-])ccc1Cl`, the IC50 is > 50 µM (inactive). For `O=C(Cc1cc(=O)oc2cc(O)ccc12)NCC1CCC(C(=O)O)CC1` (configuration not stated), the half-maximal inhibitory concentration (IC50) was 10.4 µM. With `CCN(CC)c1nc(-c2ccccc2)cc(C(F)(F)F)c1C#N`, the IC50 was 7.28 µM.

In the case of `COc1ccccc1C(=O)c1cc2ccc(O)cc2oc1=O`, the IC50 is 5.1 µM. Take `CC(=O)N1CCC(N(CCN2CCOCC2)C(=O)Nc2ccc(Cl)c(Cl)c2)CC1`: the IC50 is > 50 µM (inactive).

The term IC50 denotes the concentration that inhibits the measured activity by half.

The values above are taken from PubChem BioAssay AID2823 (Broad Institute, 2010).
